Data from the supplement of paper PMC10307832.

Tests used:
Assay in all cases: relative viability (nuclei count vs DMSO), 5 days (fraction); higher = more cells survive
Tanzisertib + Olaparib = compound: O[C@H]1CC[C@H](Nc2ncc3nc(Nc4c(F)cc(F)cc4F)n([C@H]4CCOC4)c3n2)CC1 [Tanzisertib] + O=C(c1cc(Cc2n[nH]c(=O)c3ccccc23)ccc1F)N1CCN(C(=O)C2CC2)CC1 [Olaparib] (partner 8 µM)
Procedure, shortened: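 Each reported value is a median over duplicate plates. It expresses relative viability: treated-well nuclei count divided by vehicle-well nuclei count. Lung cancer cell lines in 1536-well plates were dosed by pin tool a day after seeding, alone with one drug or with a fixed anchor-drug dose plus five library-drug doses (not always all listed) in √10 steps, and nuclei were counted after 5 days.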

[1] = compound: C[C@@H](N)c1ccc(C(=O)Nc2ccnc3[nH]ccc23)cc1
Procedure, shortened: (§1)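 Five library-drug doses, separated by factors of √10, were pinned into 1536-well plates holding lung cancer cell lines after an overnight stay at 37 °C. Cells were fixed, permeabilised and Hoechst-stained in one step after 5 days without medium change, then imaged at 4×. Viability compares treated-well with vehicle-well nuclei, counted in MetaXpress, as a median across plates. Passing plates had control CV below 25% and at least one doubling.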

Tanzisertib = compound: O[C@H]1CC[C@H](Nc2ncc3nc(Nc4c(F)cc(F)cc4F)n([C@H]4CCOC4)c3n2)CC1 [Tanzisertib]
Procedure, shortened: as §1

[2] = compound: C1CNCCC1C2=CC(=NN2)C3=CC=NC=C3
Procedure, shortened: as §1

UMC-11 showed a relative viability (Tanzisertib + Olaparib; first compound 0.08 µM) of 0.355, a relative viability (Tanzisertib + Olaparib; first compound 0.253 µM) of 0.412 and a relative viability (Tanzisertib + Olaparib; first compound 0.8 µM) of 0.411. For the same cell line, the relative viability (Tanzisertib + Olaparib; first compound 2.53 µM) was 0.501, the relative viability (Tanzisertib + Olaparib; first compound 8 µM) was 0.388 and the relative viability ([1]; 0.04 µM) was 0.954. For the same cell line, the relative viability ([1]; 0.1265 µM) was 1.07, the relative viability ([1]; 0.4 µM) was 1.16 and the relative viability ([1]; 1.265 µM) was 0.712. For the same cell line, the relative viability ([1]; 4 µM) was 0.784, the relative viability (Tanzisertib; 0.08 µM) was 1.09 and the relative viability (Tanzisertib; 0.253 µM) was 0.973. The relative viability (Tanzisertib; 0.8 µM) was 1.01, the relative viability (Tanzisertib; 2.53 µM) was 0.987 and the relative viability (Tanzisertib; 8 µM) was 1.01. The relative viability ([2]; 0.08 µM) was 0.862, the relative viability ([2]; 0.8 µM) was 1.16 and the relative viability ([2]; 2.53 µM) was 1.01. For the same cell line, the relative viability ([2]; 8 µM) was 0.992.
